Measured values taken from ChEMBL document CHEMBL1129052, “2-[(2-Aminobenzyl)sulfinyl]-1-(2-pyridyl)-1,4,5,6-tetrahydrocyclopent[d]imidazoles as a novel class of gastric H+/K+-ATPase inhibitors” (J Med Chem, 1996).

Legend:
[1] = target: T1, Potassium-transporting ATPase (Rattus norvegicus) (UniProt P09626+P18598); experiment: Effect in vivo on gastric H+/K+ -ATPase activity at 24 hrs following intraduodenal administration of 40 mg/Kg in rats; assay type: functional, organism-based; conditions: Stomach
[2] = target: T1, Potassium-transporting ATPase (Rattus norvegicus); experiment: Effect in vivo on gastric H+/K+ -ATPase activity at 3 hrs following intraduodenal administration of 40 mg/Kg in rats; assay type: functional, organism-based; conditions: Stomach
[3] = target: T1, Potassium-transporting ATPase (Rattus norvegicus); experiment: Effect in vivo on gastric H+/K+ -ATPase activity at 48 hrs following intraduodenal administration of 40 mg/Kg in rats; assay type: functional, organism-based; conditions: Stomach
[4] = target: T1, Potassium-transporting ATPase (Rattus norvegicus); experiment: Effect in vivo on gastric H+/K+ -ATPase activity at 6 hrs following intraduodenal administration of 40 mg/Kg in rats; assay type: functional, organism-based; conditions: Stomach
[5] = target: T1, Potassium-transporting ATPase (Rattus norvegicus); experiment: Effect in vivo on gastric H+/K+ ATPase activity at 1.5 hrs following intraduodenal administration of 40 mg/Kg in rats; assay type: functional, organism-based; conditions: Stomach
[6] = target: T1, Potassium-transporting ATPase (Rattus norvegicus); experiment: Effect in vivo on gastric H+/K+ ATPase activity at 48 hrs following intraduodenal administration of 40 mg/Kg in rats injected intraperitoneally with 1 mg/Kg of cycloheximide; assay type: functional, organism-based; conditions: Stomach
[7] = target: T1, Potassium-transporting ATPase (Rattus norvegicus); experiment: Gastric antisecretory activity was tested in rats at 30 mg/kg, po expressed as the percentage of inhibition against the acid output of the control group; assay type: functional, organism-based; set-up: dose 30 mg/kg
[8] = target: T1, Potassium-transporting ATPase (Rattus norvegicus); experiment: Effect in vivo on gastric H+/K+ ATPase activity at 24 hrs following intraduodenal administration of 40 mg/Kg in rats injected intraperitoneally with 1 mg/Kg of cycloheximide; assay type: functional, organism-based; conditions: Stomach
[9] = target: Potassium-transporting ATPase (Sus scrofa, UniProt P19156); experiment: In vitro inhibition against H+/K+ ATPase from porcine gastric mucosal membrane vesicles; assay type: tissue-based, Gastric mucosa
[10] = target: T1, Potassium-transporting ATPase (Rattus norvegicus); experiment: Effect in vivo on gastric H+/K+ ATPase activity at 10 hrs following intraduodenal administration of 40 mg/Kg in rats; assay type: functional, organism-based; conditions: Stomach
[11] = target: T1, Potassium-transporting ATPase (Rattus norvegicus); experiment: Effect in vivo on gastric H+/K+ ATPase activity at 10 hrs following intraduodenal administration of 40 mg/Kg in rats injected intraperitoneally with 1 mg/Kg of cycloheximide; assay type: functional, organism-based; conditions: Stomach
[12] = target: T1, Potassium-transporting ATPase (Rattus norvegicus); experiment: Effect in vivo on gastric H+/K+ ATPase activity at 24 hrs following intraduodenal administration of 40 mg/Kg in rats; assay type: functional, organism-based; conditions: Stomach
[13] = target: T1, Potassium-transporting ATPase (Rattus norvegicus); experiment: Effect in vivo on gastric H+/K+ ATPase activity at 3 hrs following intraduodenal administration of 40 mg/Kg in rats; assay type: functional, organism-based; conditions: Stomach
[14] = target: T1, Potassium-transporting ATPase (Rattus norvegicus); experiment: Effect in vivo on gastric H+/K+ ATPase activity at 6 hrs following intraduodenal administration of 40 mg/Kg in rats; assay type: functional, organism-based; conditions: Stomach

Sequence of Potassium-transporting ATPase (P18434 whole entry): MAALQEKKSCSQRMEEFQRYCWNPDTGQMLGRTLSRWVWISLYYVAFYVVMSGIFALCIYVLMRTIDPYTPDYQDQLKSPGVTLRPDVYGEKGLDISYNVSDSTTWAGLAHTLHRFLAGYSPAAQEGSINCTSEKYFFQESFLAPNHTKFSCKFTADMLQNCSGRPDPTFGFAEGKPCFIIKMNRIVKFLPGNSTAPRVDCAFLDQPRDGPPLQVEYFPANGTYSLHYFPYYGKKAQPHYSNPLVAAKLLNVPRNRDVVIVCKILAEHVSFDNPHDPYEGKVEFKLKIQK
Sequence of Potassium-transporting ATPase (P19156 whole entry): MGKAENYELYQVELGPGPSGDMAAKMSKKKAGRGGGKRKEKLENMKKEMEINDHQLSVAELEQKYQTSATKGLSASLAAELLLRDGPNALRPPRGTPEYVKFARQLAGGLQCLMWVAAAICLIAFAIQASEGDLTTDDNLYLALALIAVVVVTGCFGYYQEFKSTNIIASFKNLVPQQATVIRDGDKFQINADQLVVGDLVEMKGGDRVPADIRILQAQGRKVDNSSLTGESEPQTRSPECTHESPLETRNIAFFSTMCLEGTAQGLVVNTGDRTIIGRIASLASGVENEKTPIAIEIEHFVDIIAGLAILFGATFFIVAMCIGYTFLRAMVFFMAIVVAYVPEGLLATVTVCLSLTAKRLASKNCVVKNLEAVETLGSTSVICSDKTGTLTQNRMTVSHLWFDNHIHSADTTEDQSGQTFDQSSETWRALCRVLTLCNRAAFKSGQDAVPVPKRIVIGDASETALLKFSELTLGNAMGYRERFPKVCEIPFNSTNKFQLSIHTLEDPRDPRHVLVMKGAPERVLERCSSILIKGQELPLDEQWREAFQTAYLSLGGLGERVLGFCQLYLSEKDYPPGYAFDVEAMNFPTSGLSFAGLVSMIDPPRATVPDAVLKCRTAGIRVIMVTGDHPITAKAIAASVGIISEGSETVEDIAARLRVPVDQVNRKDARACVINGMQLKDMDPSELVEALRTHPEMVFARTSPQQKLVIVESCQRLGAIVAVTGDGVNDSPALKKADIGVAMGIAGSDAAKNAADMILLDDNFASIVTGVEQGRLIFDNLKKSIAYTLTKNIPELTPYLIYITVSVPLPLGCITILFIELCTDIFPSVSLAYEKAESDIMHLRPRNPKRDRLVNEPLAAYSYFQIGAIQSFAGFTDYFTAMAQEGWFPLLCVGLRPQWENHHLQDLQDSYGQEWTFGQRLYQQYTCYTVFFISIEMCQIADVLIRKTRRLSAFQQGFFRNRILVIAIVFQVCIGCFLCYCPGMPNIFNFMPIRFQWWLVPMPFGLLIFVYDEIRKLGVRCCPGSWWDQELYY

Control [1] [%]	Control [2] [%]	Control [3] [%]	Control [4] [%]	Control [5] [%]	Control [6] [%]	inhibition [7] [%]	Control [8] [%]	IC50 [9] [µM]	Control [10] [%]	Control [11] [%]	Control [12] [%]	Control [13] [%]	Control [14] [%]	SMILES
51.7	37.1	71.1	27.8	45.4	34.1	100	36.1	–	–	–	–	–	–	COc1ccc2[nH]c([S+]([O-])Cc3ncc(C)c(OC)c3C)nc2c1 (configuration not stated)
–	–	–	–	48.8	–	95	95.4	> 100	79.6	72.9	88.9	46	69.2	Cc1cccnc1-n1c([S+]([O-])Cc2ccccc2N)nc2c1CCC2 (configuration not stated)
